Measured values from patent US20080269161A1, “Compositions and Methods Relating to Mitochondrial Hyperpolarization in Neurological Disease” (priority 2005, published 2008).
Entries after “also recorded” stand apart in the source; their conditions may differ.

Assays:
[1] = tested on: mitochondrial membrane potential of rat cortical neurons; format: cell-based; settings: neurotoxin alone
Procedure: Curve fits are non-formulaic software interpolations of the data points.
Changes in mitochondrial function that could be associated with the increased vesicular activity were evaluated. Mitochondria generate the energy for synaptic transmission in the form of ATP, and as a byproduct of this oxidative phosphorylation, they are also one of the primary producers of intracellular ROS. Two key mitochondrial parameters were examined in response to Tat and PAF: 1) mitochondrial membrane potential (ΔΨm) [as assessed by mitochondrial uptake of the lipophilic cationic dyes tetramethylrhodamine ethyl or methyl ester (TMRE or TMRM respectively)], and 2) ATP production (as measured by luciferase assay). The electronegative mitochondrial membrane potential provides the driving force for calcium buffering and ATP production by the mitochondria, and as such, ΔΨm is frequently used as an indicator of mitochondrial health and energetic capacity. Moreover, fluctuations in ΔΨm can trigger mitochondrial release of pro-apoptotic factors, an event most frequently associated with a loss of ΔΨm.
Monitoring alterations in ΔΨm with TMRM: In the relevant methods described herein, changes in mitochondrial membrane potential (ΔΨm) in response to Tat or PAF treatment is assessed by TMRM, which must equilibrate across the plasma membrane before entering the mitochondria; and in whole cell applications dye concentration in the mitochondria is dependent on both plasma membrane potential (ΔΨp) and AΨm. At sufficiently low dye concentrations (TMRM =1 nM, i.e. high cell/dye ratio) and normal membrane potentials, ≧95% of the dye is in the mitochondria, and ≦1% in the media, which results in an approximately 100× sensitivity of the dye to ΔΨm over ΔΨp, given equivalent changes in plasma or mitochondrial membrane potential [Rottenberg, H. and S. Wu, Biochim Biophys Acta, 1998. 1404(3): p. 393-40].
For these methods, primary rodent neurons are treated with reagent under normal culture conditions for the indicated time period, followed by removal of the media, 1×2 minute wash in pre-warmed 37° C. HBSS plus 10 mM glucose and 10 mM HEPES (HBSS+), then incubation in HBSS+ with 1 nM TMRE/M. Following equilibration of the dye for 20 minutes to ensure distribution across the mitochondrial membrane, the cells are imaged while remaining in the 1 nM TMRE/M solution, as is necessary for a continued dye equilibrium state. Random field images are taken using an Olympus IX-70 microscope and 40× objective (fluorescent excitation: 545; emission: 610) and Apogee KX32ME CCD camera, and the mean relative fluorescent unit (RFU) value of the neuronal soma and processes (excluding mitochondria deficient regions) is quantified using Scanalytics IPLab software.

hippocampal neurons = assay: Dendrite beading and spine loss in hippocampal neurons in vitro; format: cell-based, rat; settings: cPAF 130 nM, 60 hours
From the text: (A) cPAF causes dendrite beading and loss of dendritic spines. (A′) Low-magnification images show minimal changes in dendrite morphology and total spine number in control cultures (left). In cPAF-treated cultures (right), dendrite beading (red arrows) is accompanied by spine loss and sprouting of filopodia (green arrowheads) but gross aspects of dendrite structure are preserved. (B) No cells developed dendritic swellings in control cultures, while 55±3% of cPAF-exposed cells beaded. (C) 43±5% of dendritic spines were lost during cPAF exposure, while total spine number was maintained in control cultures.
An additional pathologic consequence of exposure to HIV-1 neurotoxins is an increase in oxidized cellular phospholipids that can bind to and activate the PAF-R [Marathe, G. K., et al., Vascul Pharmacol, 2002. 38(4): p. 193-200]. Both energetic stress and PAF-R signaling have the potential to impair post-synaptic neurotransmission. Thus, a morphologic correlate of dendrite damage in HAD was identified, which is activity-induced dendritic swelling or “beading” in the presence of the HIV neurotoxin cPAF. […]
(3) Primary rat hippocampal neurons (HN). […] Dissociated cells are counted by trypan blue viability assay and plated in cell culture plates at 0.5-0.6×10^5 cells/cm^2, on poly-D-lysine-coated cell culture plastic or sterile glass coverslips. […]

CCCCCCCCCCCCCCCCOC[C@H](COP(=O)([O-])OCC[N+](C)(C)C)OC(=O)NC [PAF, carbamyl-platelet-activating factor]
effect on ΔΨm [1]: dose dependent increases; also recorded: dose-dependent rise | cells with dendrite beading (hippocampal neurons): 55±3% | dendritic spines lost (hippocampal neurons): 43±5%
